Measurements from US7011845B2, “β-glucans encapsulated in liposomes” (MCP Hahnemann University, priority 2000, dated 2006).

Assays:
[1] = tested on: splenocytes stimulated with rgp160
[2] = Quantification of lentinan in serum after oral administration (Fungitec G test); type: in vivo; conditions: mice fed orally four times with 100 μg (total 400 μg) during 4 hr, serum 2 hr after last administration, mean ± SD
Protocol: Formulations of 400 μg of lentinan dissolved in PBS or associated with liposomes were delivered orally in four doses to fasted mice over a period of 4 hrs. The level of lentinan in blood serum was measured 2 hr after the delivery using the Fungitec G test (Seikagaku Co., Inc.), according to the manufacturer's protocol. Background activity was determined by analyzing lentinan levels in sera of control mice.
We first investigated whether lentinan dissolved in PBS or associated with liposomes would penetrate through the epithelial barrier of the gut. Mice were fed with four doses of liposome-associated or unencapsulated lentinan (total concentration of 400 μg) over a 4-hr period. The level of lentinan in blood serum was analyzed 2 hr after lentinan administration.

With Lentinan the “Toxic effect to the cells” value [1] was “without any detectable toxic effect”, the “Env-specific IFN-γ level relative to stimulation with rgp160 in the absence of lentinan” value ([1]; lentinan 3 μg/ml to 100 μg/ml, 3 days, FIG. 3) was about 2 fold and the “Effect on env-specific IFN-γ production” value ([1]; lentinan higher than 100 μg/ml or lower than 3 μg/ml) was “smaller effect”. The “Serum concentration of lentinan” value ([2]; listed as Unencapsulated lentinan) was 1,325 ± 1,241 pg/ml and the “Serum concentration of lentinan” value ([2]; listed as unencapsulated lentinan) was 1,325±1,241 pg/ml.
